The source of these data is publication PMC3205185, “Identification of a Eukaryotic Reductive Dechlorinase and Characterization of Its Mechanism of Action on Its Natural Substrate” (Chemistry & Biology, 2011).

Numbering of substitutions follows the chain as printed.

Data set [1] addresses T1, DrcA (ΔNC16NDrcA) (Dictyostelium discoideum, UniProt Q54B85, C54N).
T1 construct: gene DDB_G0293840; ΔNDrcA, lacking the first 38 residues
T1 sequence (Q54B85 39-275 C54N): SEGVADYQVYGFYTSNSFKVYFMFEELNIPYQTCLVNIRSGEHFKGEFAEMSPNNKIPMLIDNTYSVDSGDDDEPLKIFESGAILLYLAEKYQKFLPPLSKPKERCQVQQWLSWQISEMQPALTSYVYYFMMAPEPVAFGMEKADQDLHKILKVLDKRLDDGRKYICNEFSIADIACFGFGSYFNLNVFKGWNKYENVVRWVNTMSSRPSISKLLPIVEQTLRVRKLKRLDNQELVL
Nature of the data set: dechlorination assay with purified mutant, TLC and Orbitrap MS of the conjugates. The data set is classed as biochemical.

Data set [2] concerns the target T1, DrcA (ΔNC16NDrcA). Nature of the data set: TLC time course and Orbitrap MS of products of the purified mutant; further converted to GS-DIF-GS. The data set is classed as biochemical.
Data set [3] addresses T2, DrcA (DIF-1 dechlorinase) (Dictyostelium discoideum, UniProt Q54B85).
T2 construct: gene DDB_G0293840
T2 sequence (Q54B85 1-275): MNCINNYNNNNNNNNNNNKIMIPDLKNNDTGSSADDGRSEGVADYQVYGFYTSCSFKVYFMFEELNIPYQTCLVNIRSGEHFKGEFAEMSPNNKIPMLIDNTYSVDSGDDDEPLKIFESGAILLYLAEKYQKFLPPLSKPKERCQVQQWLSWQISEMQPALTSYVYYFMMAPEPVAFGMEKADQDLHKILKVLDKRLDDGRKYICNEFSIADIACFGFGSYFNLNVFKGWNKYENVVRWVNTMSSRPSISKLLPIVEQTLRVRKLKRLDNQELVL
Nature of the data set: DIF-1 dechlorination assay with TLC, purified protein; further dechlorinated at higher enzyme or longer incubation. The data set is classed as biochemical.

Substrate in data set [4]: CCCCCC(=O)c1c(O)c(Cl)c(OC)c(Cl)c1O
Nature of the data set: radioactive [3H]DIF-1 dechlorination assay with TLC, Michaelis-Menten kinetics, purified enzyme (Km). The data set is classed as biochemical, Dictyostelium discoideum. The settings on record: glutathione glutathione attacks the carbon-chlorine bond to give a GS-DIF conjugate, which is resolved by Cys54.

Take `CCCCCC(=O)c1c(O)c(Cl)c(OC)c(Cl)c1O` [DIF-1]: at DrcA (ΔNC16NDrcA) [1], the “dechlorination assay with purified mutant, TLC and Orbitrap MS of the conjugates” value is “although DIF-1 was consumed in the assay, DIF-3 was not produced”.

Take `CCCCCC(=O)c1c(O)c(Cl)c(OC)c(SC[C@H](NC(=O)CC[C@H](N)C(=O)O)C(=O)NCC(=O)O)c1O` [GS-DIF]: the “TLC time course and Orbitrap MS of products of the purified mutant; further conv” value at DrcA (ΔNC16NDrcA) [2] was “ΔNC16NDrcA must be able to accommodate the conjugate GS-DIF to attack the second carbon-chlorine bond”.

For `CCCCCC(=O)c1c(O)cc(OC)c(Cl)c1O` [DIF-3], the “DIF-1 dechlorination assay with TLC, purified protein; further dechlorinated at” value in data set [3] is “only appears after all DIF-1 has been converted into the monochlorinated form, suggesting a lower affinity”.

B1: DrcA (DIF-1 dechlorinase) (Dictyostelium discoideum) (protein)
chain: T1 sequence (Q54B85 39-275 C54N) with N16C
notes: ΔNDrcA, lacking the first 38 residues, C-terminal 6×His tag
On to B1, for which, in data set [4], the Km – broadly, the substrate concentration at which the rate is half of its maximum – was determined as 0.088 ± 0.0175 µM; the kcat (commonly the maximal rate divided by the concentration of active sites) was 6.7 s⁻¹; the kcat/Km (commonly the turnover number divided by the Michaelis constant) stood at 7.6e+07 M⁻¹ s⁻¹.
